Assay: Inhibition of NS5B RNA dependent RNA polymerase in HCV 1b Con1 infected in human Huh5-2 cells assessed as reduction in viral RNA replication measured after 3 days by luciferase reporter gene assay

| Compound | EC50 |
| --- | --- |
| CCOC(=O)c1csc([C@H]2[C@@H](COC)C[C@@](CC(C)C)(C(=O)O)N2C(=O)c2ccc(C(C)(C)C)c(OC)c2)n1 | 60 µM |
| CC[C@H]1[C@@H](COC)C[C@@](CC(C)C)(C(=O)O)N1C(=O)c1ccc(C(C)(C)C)c(OC)c1 | 40 µM |
| COC[C@H]1C[C@@](CC(C)C)(C(=O)O)N(C(=O)c2ccc(C(C)(C)C)c(OC)c2)[C@H]1COC(C)=O | 30 µM |
| COC[C@H]1C[C@@](CC(C)C)(C(=O)O)N(C(=O)c2ccc(C(C)(C)C)c(OC)c2)[C@H]1CF | 45 µM |
| COC[C@H]1C[C@@](CC(C)C)(C(=O)O)N(C(=O)c2ccc(C(C)(C)C)c(OC)c2)[C@H]1[C@H]1COC(C)(C)O1 | 60 µM |
| COC[C@H]1C[C@@](CC(C)C)(C(=O)O)N(C(=O)c2ccc(C(C)(C)C)c(OC)c2)[C@H]1CN=[N+]=[N-] | 100 µM |
| COC[C@H]1C[C@@](CC(C)C)(C(=O)O)N(C(=O)c2ccc(C(C)(C)C)c(OC)c2)[C@H]1COC(=O)OC | 30 µM |

Compounds with a lower EC50, results first:

| EC50 | Compound |
| --- | --- |
| 15 µM | COC[C@H]1C[C@@](CC(C)C)(C(=O)O)N(C(=O)c2ccc(C(C)(C)C)c(OC)c2)[C@H]1CNC(C)=O |
| 15 µM | COC[C@H]1C[C@@](CC(C)C)(C(=O)O)N(C(=O)c2ccc(C(C)(C)C)c(OC)c2)[C@@H]1c1nccs1 |
| 7.5 µM | C=CCOC[C@H]1[C@@H](COC)C[C@@](CC(C)C)(C(=O)O)N1C(=O)c1ccc(C(C)(C)C)c(OC)c1 |
| 7 µM | COC[C@H]1C[C@@](CC(C)C)(C(=O)O)N(C(=O)c2ccc(C(C)(C)C)c(OC)c2)[C@H]1C(=O)OC |
| 2 µM | COC[C@H]1C[C@@](CC(C)C)(C(=O)O)N(C(=O)c2ccc(C(C)(C)C)c(OC)c2)[C@H]1[C@H]1COC(=O)O1 |
| 2 µM | COC[C@H]1C[C@@](CC(C)C)(C(=O)O)N(C(=O)c2ccc(C(C)(C)C)c(OC)c2)[C@H]1C(N)=O |
| 0.6 µM | COC[C@H]1C[C@@](CC(C)C)(C(=O)O)N(C(=O)c2ccc(C(C)(C)C)c(OC)c2)[C@H]1COC |
| 0.1 µM | COC[C@H]1C[C@@](CC(C)C)(C(=O)O)N(C(=O)c2ccc(C(C)(C)C)c(OC)c2)[C@H]1c1nccs1 |

Reference: BindingDB's records for doi:10.1016/j.ejmech.2019.03.019 (Csic - Universidad De Zaragoza, 2019)
